Our source for the anti-inflammatory activity and ED50 values is US4052436A, “Fluorene-2-acetic acids and derivatives, process and method of using” (E. R. Squibb & Sons, Inc., priority 1976, dated 1977).

SMILES strings stand for the structures.

A short description of assay [1]: anti-inflammatory activity of the optical isomers and dl mixture (test not specified). The format is in vivo. As to conditions: α-methyl-fluorene-2-acetic acid, d and l optical isomers and dl mixture.
Assay [2] has as its system carrageenin-induced edema in the hind paw of the rat. The assay is described as follows: carrageenin-induced edema assay (oral, hind paw). In kind it is in vivo. As to conditions: 5 h, carrageenin injected into hind paw 2 h after dose, edema weighed 3 h after injection, read-out: ID50 (calculated dose that produces 50 percent inhibition of the edema). How it is done:
The anti-inflammatory activities of fluorene-2-acetic acid and its derivatives may be tested by a carrageenin-induced edema assay. Carrageenin injected into the footpad of rats produces an edematous condition, due mainly to vaso-active mediators. The compound to be tested is administered orally and assessed for inhibition of the edema.
The following examples show the anti-inflammatory activity of fluorene-2-acetic acid and 7-chloro-fluorene-2-acetic acid as determined by carrageenin-induced edema assay.
The procedure for these experiments is to first orally administer the test compound to a rat. Two hours later a solution of carrageenin is injected into the plantar surface of the hind paw of the rat. Three hours after the injection (5 hours after administration of the drug) the edema in the treated paw is measured by weighing the paws. To establish the baseline, the weight of the contralateral paw is determined. A dose-response curve is established, and the activity of the drug is recorded as the calculated dose that produces 50 percent inhibition (ID50) of the edema.

As for `CC(C(=O)O)c1ccc2c(c1)Cc1ccccc1-2` (single isomer, unassigned) [d, α-methyl-fluorene-2-acetic acid], the anti-inflammatory activity entry in assay [1] is listed as “possesses anti-inflammatory activity”.

As for `CC(C(=O)O)c1ccc2c(c1)Cc1ccccc1-2` (single isomer, unassigned) [l, α-methyl-fluorene-2-acetic acid], the anti-inflammatory activity result in assay [1] is recorded as “possesses anti-inflammatory activity”.

In the case of `O=C(O)Cc1ccc2c(c1)Cc1cc(Cl)ccc1-2` [7-chloro-fluorene-2-acetic acid], the ED50 in assay [2] is roughly 150 mg/kg.

For the compound `CC(C(=O)O)c1ccc2c(c1)Cc1ccccc1-2` (stereo not drawn) [dl mixture, α-Methyl fluorene-2-acetic acid], the anti-inflammatory activity result in assay [1] is on record as “possesses anti-inflammatory activity”.

Consider `O=C(O)Cc1ccc2c(c1)Cc1ccccc1-2` [fluorene-2-acetic acid], for which the ED50 in assay [2] was 67 mg/kg.
